Tests used:
[1] = test system: HepG2 cells; experiment: Cell migration inhibition assay (xCELLigence, CIM plates); type: cell-based, human; conditions: 24 h pre-incubation at one-fourth of IC50
Description: By using the xCELLigence platform, we evaluated migration potential of HepG2 cells after the administration of compounds. We incubated the cells with compounds 54–61 at the concentration corresponding to one-fourth of the IC50 value for 24 h before the analysis, and the cells were then seeded on a CIM plate. Impedance-based cell index (CI) of HepG2 cells was measured every 30 min for 72 h. […] The most significant changes were observed within the first 24 h (Figure 3A). Thus, to obtain more insight into the altered migration profile caused by the analyzed compounds, we additionally calculated the slope representing the rate of change of the cell index within the first 24 h.
Transwell cell migration experiments were performed using xCELLigence RTCA Analyzer (Roche) in Cell Invasion and Migration (CIM) plates (ACEA Biosciences, San Diego, CA, USA). Each well consisted of an upper and a lower chamber separated by a microporous polyethylene terephthalate (PET) membrane containing randomly distributed 8 μm-pores. Prior to the migration assay, HepG2 cells (15 × 10^3) were seeded onto 48-well plates containing the growth medium (EMEM) and incubated until 70–80% confluency and incubated at 37 °C in a humidified atmosphere containing 5% CO2. Subsequently, the cells were treated for 24 h with the tested compounds at the final concentration corresponding to the one-fourth of IC50 value. Next, 160 μL of complete growth medium (supplemented with 10% FBS) was added to the lower chamber and 50 μL of serum-free growth medium to the upper chambers of CIM plate. The plates were incubated at 37 °C and 5% CO2 saturation for 1 h prior to insertion into the xCELLigence platform. To initiate a transwell migration experiment, cells were detached, resuspended in the serum-free growth medium, and seeded in the upper chamber at a density of 1 × 10^4 cells in 100 μL per well, previously treated with the compounds. The impedance of the microelectrode array was monitored and converted to the cell index (CI). Normalization values were recorded using the RTCA Software 1.2.1. […]
Figure 3 Real-time migration potential of HepG2 cells after 24 h administration of compounds 54–61. The migration potential of the cells was monitored using the xCELLigence system. HepG2 cells were incubated with the analyzed compounds for 24 h before the analysis at the concentration corresponding to one-fourth of the IC50 value. The impedance (cell index values) was measured every 30 min for the next 72 h. To eliminate the influence of the solvent, DMSO was added to the cells in a volume that corresponded to the highest compound concentration (A). The slope parameter represents the rate of changes in CI values of HepG2 cells within the first 24 h (B). […]

[2] = test system: HepG2 cells; experiment: Cell cycle analysis by flow cytometry (PI staining); type: cell-based, human; conditions: HepG2, 24 h at IC50; for cells in G2M phase: control 11.5%
Description: To reveal the mechanism underlying the inhibitory effect of the obtained compounds on cellular viability, we examined cell cycle regulation. For this purpose, HepG2 cells were exposed to compounds 54–61 (54 (5.5 µM), 55 (3.4 µM), 56 (12 µM), 57 (3.1 µM), 58 (3.9 µM), 59 (5.4 µM), 60 (31 µM), and 61 (4.8 µM)). The chosen concentration of each of these compounds corresponded to their total IC50 value.
After exposure, HepG2 cells were examined by flow cytometry, and their DNA content was measured by PI staining. […] Compounds 54–59 caused arrest in the G1/G0 phase since we observed a higher number of cells in that phase as compared to control (Figure 4 and Figure S297, ESI). […] Compounds 60 and 61 arrested cell cycle in the G2M phase, where the accumulation of cells was observed (>18% vs. 11.5% in control cells) (Figure 4 and Figure S297, ESI). In comparison, mitonafide and pinafide induced cell cycle arrest at the S and G2M phases, respectively. […] In contrast, 1,8-naphthalimide products with carborane modification at position 3 caused cell cycle arrest at the G2M phase, similar to pinafide and compounds 60 and 61 from this study.
HepG2 (5 × 10^5) cells were seeded onto 6-well cell culture plates and incubated for 24 h in a fully supplemented EMEM medium (Corning®) with addition of the analyzed compounds at a concentration corresponding to their total IC50 values. DNA content was determined by flow cytometry with PI (Sigma-Aldrich, Steinheim, Germany) staining. After incubation, the cells were trypsinized and washed twice with PBS (1 mL). In the next step, the cells were fixed with an ice-cold 80% ethanol. After 1 h incubation at 4 °C, the cells were stored at −20 °C for further analysis. After double wash with PBS, the fixed cells were stained with PI (50 μg/mL) with RNAse A (100 μg/mL) for 30 min at 37 °C in the dark. PI fluorescence was measured by FACSCalibur (Becton Dickinson), and data were analyzed by FlowJo software. […]

Substance	effect on migration potential of HepG2 cells (cell index, slope in first 24 h) [1]	cells in G2M phase [2]	G0/G1 cell fraction ([2]; control 60.1%)
N-[2-N-Pyrrolidinyl)ethyl]-4-[(6-(2-(1,7-dicarba-closo-dodecaborane-1-yl)-ethylamino)hexyl)amino]-1,8-naphthalimide [Compound 61]	highest impairment	> 18%	–
N-[2-(Dimethylamino)ethyl]-4-[(6-(2-(1,2-dicarba-closo-dodecaborane-1-yl)-ethylamino)hexyl)amino]-1,8-naphthalimide [Compound 58]	–	–	70.4%
N-[2-(Pyrrolidin-1-yl)ethyl]-4-[(2-(2-(1,7-dicarba-closo-dodecaborane-1-yl)-ethylamino)ethyl)amino]-1,8-naphthalimide [Compound 57]	influenced the migratory activity most	–	–
N-[2-N-Pyrrolidinyl)ethyl]-4-[(6-(2-(1,2-dicarba-closo-dodecaborane-1-yl)-ethylamino)hexyl)amino]-1,8-naphthalimide [Compound 60]	influenced the migratory activity most	> 18%	–
N-[2-(Pyrrolidin-1-yl)ethyl]-4-[(2-(2-(1,2-dicarba-closo-dodecaborane-1-yl)-ethylamino)ethyl)amino]-1,8-naphthalimide [Compound 56]	influenced the migratory activity most	–	–
